Assay results published in patent US20250163052A1, “cGAS INHIBITORS AND USES THEREOF” (Cornell University, priority 2022, published 2025).

Tests used:
[1] = molecular target: m-cGAS (Mus musculus, UniProt Q8C6L5); assay: Cell-free mouse cGAS enzyme inhibition assay (ATP depletion, Kinase-Glo Max); format: biochemical; settings: 1 h; for inhibition at 10 µM: read-out: m-cGAS, conc. 10 μM
Procedure: (§1) Cell-free mouse and human cGAS enzyme inhibition assay (Table 2). Activity of all compounds (in Table 1) against m-cGAS (30 nM) and or h-cGAS, (100 nM) was determined by measuring the conversion of ATP and GTP (100 μM each) to cGAMP in the presence of dsDNA (5 ug/mL) in a reaction buffer composed of Tris-HCl (20 mM, pH7.4), NaCl (150 mM), MnCl2 (0.2 mM, h-cGAS) or MgCl2 (5 mM, m-cGAS) and Tween-20 (0.01%), and the remaining ATP concentration using Kinase-Glo®Max Luminescent Kinase Assay (Promega, Madison, WI), as described (Lama, et. al., 2019). Briefly, 10 μl of a master mix of 0.4 mM ATP, 0.4 mM GTP, 0.02 mg/mL dsDNA in the reaction buffer supplemented with 2 mM DTT was added to reaction wells containing TDI-6570 or TDI-8246 (2× of the desired concentration) in the same buffer ([…]) using a Thermo 8-channel Multidrop Combi dispenser. Next, 10 μl of a 4×m-cGAS (0.120 μM) or h-cGAS (0.4 μM) solution in the reaction buffer supplemented with 2 mM DTT was added to appropriate wells. Similar sets of reactions without cGAS or the inhibitor was set by adding the buffer alone. The reactions with the plates sealed were incubated at 37° C. (1 hour for m-cGAS and 3 hours for h-cGAS) and stopped by addition of 40 μl of the Kinase-Glo®Max. The luminescence was recorded in relative light units (RLUs) using a Biotek Synergy H1 Hybrid plate reader (BioTek, Winooski, VT). […] All reactions were run in triplicates and calculated using GraphPad Prism 9. The values represent mean IC50±S.D.

[2] = molecular target: h-cGAS (Homo sapiens, UniProt Q8N884); assay: Cell-free human cGAS enzyme inhibition assay (ATP depletion, Kinase-Glo Max); format: biochemical; settings: 3 h; for inhibition at 1 µM: read-out: h-cGAS, conc. 1 μM; for inhibition at 10 µM: read-out: h-cGAS, conc. 10 μM
Procedure: as §1

[3] = test system: THP1 cells; assay: THP1-Dual cells, cell viability (CellTiter-Glo); format: cell-based
Procedure: (§2) Evaluation of active cGAS inhibitors in THP1 cells (Table 3). Cellular activity of all compounds (in Table 3) was determined using THP1-Dual™ cells as described (Lama et. al., 2019). THP1-Dual™ cells (Invivogen) (50000 cells in 100 μl media) were seeded into each well of a 96-well plate and treated with compounds at various dilution for 4 hours. Subsequently, cells were transfected with DNA (2 ug/ml) and lipofectamine and incubate the cells were incubated overnight. Ifnb expression was measured in cell supernatant using Quantiluc, nfkb expression was determined using Quantiblue, and cell viability using Promega® CellTiter-Glo®.

[4] = test system: NFkB-SEAP; assay: THP1-Dual cells transfected with DNA, nfkb expression (Quantiblue); format: cell-based; settings: Homo sapiens; for inhibition at 10 µM: THP-1, 10 μM; for inhibition at 30 µM: THP-1, 30 μM
Procedure: as §2

[5] = test system: IFNB; assay: THP1-Dual cells transfected with DNA, Ifnb expression (Quantiluc); format: cell-based; settings: Homo sapiens; for inhibition at 10 µM: THP-1, 10 μM; for inhibition at 30 µM: THP-1, 30 μM
Procedure: as §2

Chain of h-cGAS (Q8N884 whole entry): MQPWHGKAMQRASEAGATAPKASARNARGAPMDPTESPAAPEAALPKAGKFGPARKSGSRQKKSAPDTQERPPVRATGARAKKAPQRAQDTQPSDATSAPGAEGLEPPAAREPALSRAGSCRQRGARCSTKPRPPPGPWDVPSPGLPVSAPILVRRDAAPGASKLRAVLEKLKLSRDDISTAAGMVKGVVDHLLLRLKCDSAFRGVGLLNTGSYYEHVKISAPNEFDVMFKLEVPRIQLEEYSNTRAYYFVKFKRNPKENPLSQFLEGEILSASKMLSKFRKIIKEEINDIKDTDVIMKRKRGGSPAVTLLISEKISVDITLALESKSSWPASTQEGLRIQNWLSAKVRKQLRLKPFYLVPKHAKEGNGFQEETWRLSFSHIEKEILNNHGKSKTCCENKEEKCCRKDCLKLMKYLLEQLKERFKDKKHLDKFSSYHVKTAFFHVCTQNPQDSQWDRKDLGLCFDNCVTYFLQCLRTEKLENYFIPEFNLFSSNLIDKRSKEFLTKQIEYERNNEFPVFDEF
Chain of m-cGAS (Q8C6L5 whole entry): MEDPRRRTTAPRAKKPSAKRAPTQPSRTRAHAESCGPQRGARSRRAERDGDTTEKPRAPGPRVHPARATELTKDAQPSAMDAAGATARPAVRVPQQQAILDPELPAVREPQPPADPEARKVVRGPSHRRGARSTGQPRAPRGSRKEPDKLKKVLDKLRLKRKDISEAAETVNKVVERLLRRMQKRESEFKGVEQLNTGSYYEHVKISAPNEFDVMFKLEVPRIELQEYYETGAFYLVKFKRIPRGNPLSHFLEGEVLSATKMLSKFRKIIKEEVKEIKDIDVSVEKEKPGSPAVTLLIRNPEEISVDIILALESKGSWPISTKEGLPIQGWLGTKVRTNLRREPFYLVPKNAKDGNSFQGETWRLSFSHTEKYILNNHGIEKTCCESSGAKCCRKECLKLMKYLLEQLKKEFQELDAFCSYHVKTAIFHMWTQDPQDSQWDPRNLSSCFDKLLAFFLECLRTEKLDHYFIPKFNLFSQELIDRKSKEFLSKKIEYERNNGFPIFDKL

SMILES	inhibition at 10 µM [1] [%]	inhibition at 1 µM [2] [%]	inhibition at 10 µM [2] [%]	inhibition at 1 µM ([1]; read-out: m-cGAS, conc. 1 μM) [%]	Cell viability 10 μM [3]	Cell viability 30 μM [3]	inhibition at 10 µM [4] [%]	inhibition at 30 µM [4] [%]	inhibition at 10 µM [5] [%]	inhibition at 30 µM [5] [%]
Cn1c2c(c3c(O)cc(Cl)c(F)c31)CN(C(=O)CO)CC2 [Compound 1, 1-(7-chloro-6-fluoro-9-hydroxy-5-methyl-3,4-dihydro-1H-pyrido[4,3-b]indol-2-yl)-2-hydroxy-ethanone]	75 to 100	0 to 24	75 to 100	–	+++ (+, ++, and +++ mean the compound respectively shows 25-49%; 50-74%; or 75-100% viability to cells)	+++ (+, ++, and +++ mean the compound respectively shows 25-49%; 50-74%; or 75-100% viability to cells)	< 24	< 24	< 24	< 24
O=C(CO)N1CCc2[nH]c3c(Cl)c(Cl)cc(O)c3c2C1 [Compound 3]	75 to 100	50 to 74	75 to 100	75 to 100	+++ (+, ++, and +++ mean the compound respectively shows 25-49%; 50-74%; or 75-100% viability to cells)	+++ (+, ++, and +++ mean the compound respectively shows 25-49%; 50-74%; or 75-100% viability to cells)	< 24	< 24	< 24	–
Cn1c2c(c3c(Br)cc(Cl)c(Cl)c31)CN(C(=O)CN)CC2 [Compound 6]	75 to 100	0 to 24	75 to 100	–	+++ (+, ++, and +++ mean the compound respectively shows 25-49%; 50-74%; or 75-100% viability to cells)	+++ (+, ++, and +++ mean the compound respectively shows 25-49%; 50-74%; or 75-100% viability to cells)	< 24	25 to 49	< 24	< 24
CN1c2c(Cl)c(Cl)cc(-c3cncnc3)c2C2CN(C(=O)CN)CCC21 (stereo not shown) [Compound 9]	0 to 24	50 to 74	75 to 100	–	+++ (+, ++, and +++ mean the compound respectively shows 25-49%; 50-74%; or 75-100% viability to cells)	+++ (+, ++, and +++ mean the compound respectively shows 25-49%; 50-74%; or 75-100% viability to cells)	< 24	< 24	< 24	< 24
Nc1ccc(-c2cc(Cl)c(Cl)c3[nH]c4c(c23)CN(C(=O)[C@@H]2CCCN2)CC4)cn1 [Compound 16]	0 to 24	–	75 to 100	–	+++ (+, ++, and +++ mean the compound respectively shows 25-49%; 50-74%; or 75-100% viability to cells)	+ (+, ++, and +++ mean the compound respectively shows 25-49%; 50-74%; or 75-100% viability to cells)	75 to 100	75 to 100	75 to 100	75 to 100
Cn1c2c(c3c(-c4ccc(N)nc4)cc(Cl)c(Cl)c31)CN(C(=O)C1CCCN1)CC2 (stereo not shown) [Compound 17]	0 to 24	25 to 49	75 to 100	–	+++ (+, ++, and +++ mean the compound respectively shows 25-49%; 50-74%; or 75-100% viability to cells)	++ (+, ++, and +++ mean the compound respectively shows 25-49%; 50-74%; or 75-100% viability to cells)	25 to 49	75 to 100	25 to 49	75 to 100
O=C(CO)N1CCc2sc3c(Cl)c(Cl)cc(-c4cn[nH]c4)c3c2C1 [Compound 51]	0 to 24	0 to 24	25 to 49	–	+++ (+, ++, and +++ mean the compound respectively shows 25-49%; 50-74%; or 75-100% viability to cells)	+++ (+, ++, and +++ mean the compound respectively shows 25-49%; 50-74%; or 75-100% viability to cells)	–	–	25 to 49	75 to 100
Nc1ccc(-c2cc(Cl)c(Cl)c3sc4c(c23)CN(C(=O)[C@H]2CCCN2)CC4)cn1 [Compound 57]	0 to 24	–	50 to 74	–	− (Cell viability <24%, in THP1 cells is expressed as “−”)	− (Cell viability <24%, in THP1 cells is expressed as “−”)	–	–	75 to 100	75 to 100

Continued, in another order:

inhibition at 10 µM [1] [%]	inhibition at 1 µM [2] [%]	inhibition at 10 µM [2] [%]	inhibition at 1 µM ([1]; read-out: m-cGAS, conc. 1 μM) [%]	SMILES	Cell viability 10 μM [3]	Cell viability 30 μM [3]	inhibition at 10 µM [4] [%]	inhibition at 30 µM [4] [%]	inhibition at 10 µM [5] [%]	inhibition at 30 µM [5] [%]
0 to 24	25 to 49	75 to 100	–	CC(O)C(=O)N1CCc2c(c3c(-c4ccn(C)n4)cc(Cl)c(Cl)c3n2C)C1 (stereo not shown) [Compound 4]	+++ (+, ++, and +++ mean the compound respectively shows 25-49%; 50-74%; or 75-100% viability to cells)	+++ (+, ++, and +++ mean the compound respectively shows 25-49%; 50-74%; or 75-100% viability to cells)	< 24	25 to 49	< 24	50 to 74
0 to 24	25 to 49	75 to 100	–	Cn1ccc(-c2cc(Cl)c(Cl)c3c2c2c(n3C)CCN(C(=O)C(C)(C)O)C2)n1 [Compound 5]	+++ (+, ++, and +++ mean the compound respectively shows 25-49%; 50-74%; or 75-100% viability to cells)	+++ (+, ++, and +++ mean the compound respectively shows 25-49%; 50-74%; or 75-100% viability to cells)	< 24	< 24	< 24	< 24
0 to 24	50 to 74	75 to 100	–	Cn1c2c(c3c(-c4cncnc4)cc(Cl)c(Cl)c31)CN(C(=O)CN)CC2 [Compound 8]	+++ (+, ++, and +++ mean the compound respectively shows 25-49%; 50-74%; or 75-100% viability to cells)	− (Cell viability <24%, in THP1 cells is expressed as “−”)	25 to 49	50 to 74	50 to 74	75 to 100
0 to 24	–	75 to 100	–	Cn1cc(-c2cc(Cl)c(Cl)c3c2c2c(n3C)CCN(C(=O)CNC(=O)OC(C)(C)C)C2)cn1 [Compound 10]	+++ (+, ++, and +++ mean the compound respectively shows 25-49%; 50-74%; or 75-100% viability to cells)	+++ (+, ++, and +++ mean the compound respectively shows 25-49%; 50-74%; or 75-100% viability to cells)	< 24	50 to 74	< 24	75 to 100
0 to 24	0 to 24	75 to 100	–	CN1c2c(Cl)c(Cl)cc(-c3cnn(C)c3)c2C2CN(C(=O)CN)CCC21 (stereo not shown) [Compound 12]	+++ (+, ++, and +++ mean the compound respectively shows 25-49%; 50-74%; or 75-100% viability to cells)	–	< 24	–	< 24	–
0 to 24	50 to 74	75 to 100	–	Cn1ccc(-c2cc(Cl)c(Cl)c3sc4c(c23)CN(C(=O)CO)CC4)n1 [Compound 46]	+++ (+, ++, and +++ mean the compound respectively shows 25-49%; 50-74%; or 75-100% viability to cells)	++ (+, ++, and +++ mean the compound respectively shows 25-49%; 50-74%; or 75-100% viability to cells)	–	–	25 to 49	75 to 100
0 to 24	0 to 24	50 to 74	–	O=C(CO)N1CCc2sc3c(Cl)c(Cl)cc(-c4ccco4)c3c2C1 [Compound 52]	+++ (+, ++, and +++ mean the compound respectively shows 25-49%; 50-74%; or 75-100% viability to cells)	+++ (+, ++, and +++ mean the compound respectively shows 25-49%; 50-74%; or 75-100% viability to cells)	–	–	25 to 49	75 to 100
0 to 24	–	50 to 74	–	CC(C)(N)C(=O)N1CCc2sc3c(Cl)c(Cl)cc(-c4ccc(N)nc4)c3c2C1 [Compound 56]	+ (+, ++, and +++ mean the compound respectively shows 25-49%; 50-74%; or 75-100% viability to cells)	− (Cell viability <24%, in THP1 cells is expressed as “−”)	–	–	75 to 100	75 to 100
